The source of these data is patent US7375220B2, “Method of treating diseases and conditions associated with an altered level of amyloid β peptides and new enolcarboxamide compounds” (Boehringer Ingelheim Vetmedica GmbH, priority 2004, dated 2008).

Series [1] deals with Aβ42. The following applies: according to table 3 of WO 01/78721; cited from earlier work.

In the case of `CN1C(C(=O)Nc2ccccn2)=C(O)c2ccccc2S1(=O)=O` [piroxicam], in series [1], the Aβ42 level result was “do not lower or even increase the Aβ42 level”.
The compound `CN1C(=O)C(C(=O)Nc2ccc(Cl)cc2)c2ccc3c(c2S1(=O)=O)CCCC3` (centres unmarked) [Example 13, 3,4,7,8,9,10-Hexahydro-2-methyl-3-oxo-2H-naphtho[2,1-e]-1,2-thiazine-4-(4-chloro)carboxanilide 1,1-dioxide] displayed a melting point of 106 to 108 °C.
`O=C(Nc1ccccc1C(F)(F)F)C1C(=O)N(Cc2ccc(F)cc2)S(=O)(=O)c2ccc(Cl)cc21` (centres unmarked) [Example 14, 6-Chloro-3,4-dihydro-2-(4-fluorobenzyl)-3-oxo-2H-1,2-benzothiazine-4-(2-trifluoromethyl)carboxanilide 1,1-dioxide] registered a melting point of 198 to 199 °C.
For the compound `Cc1cc(NC(=O)C2=C(O)c3ccccc3S(=O)(=O)N2C)no1` [isoxicam], the Aβ42 level entry in series [1] was “do not lower or even increase the Aβ42 level”.
`O=C(Nc1cccc(C(F)(F)F)c1)C1C(=O)N(Cc2ccc(F)cc2)S(=O)(=O)c2ccc(Cl)cc21` (centres unmarked) [Example 15, 6-Chloro-3,4-dihydro-2-(4-fluorobenzyl)-3-oxo-2H-1,2-benzothiazine-4-(3-trifluoromethyl)carboxanilide 1,1-dioxide] showed a melting point of 183 to 184 °C.
